Results from article PMC2896053 (Pharmaceutical research, 2009).
Entries after “also recorded” stand apart in the source; their conditions may differ. Where a name gives a salt, the structure may show the parent alone.

Experiments:
[1] = test system: BBB transport of 125I-ANG1005; test: brain 125I-ANG1005 uptake with co-perfused transport inhibitors; format: in vivo, rat; settings: P>0.05
[2] = male, Sprague Dawley, rat, in vivo
[3] = female, NuNu, mouse, in vivo, 30 min
[4] = cited from earlier work
[5] = capillary depletion after in situ brain perfusion; format: in vivo, rat; settings: 120 s perfusion, 30 s post wash
[6] = target: low density lipoprotein receptor-related protein (LRP) (Rattus norvegicus, UniProt G3V928); test: brain 125I-ANG1005 uptake with co-perfused unlabeled angiopep-2 or LRP ligands; format: in vivo; settings: co-perfusion 120 s with 10 or 100 μM unlabeled angiopep-2, P<0.05
low density lipoprotein receptor-related protein (LRP), sequence (G3V928 20-3944 limits assumed): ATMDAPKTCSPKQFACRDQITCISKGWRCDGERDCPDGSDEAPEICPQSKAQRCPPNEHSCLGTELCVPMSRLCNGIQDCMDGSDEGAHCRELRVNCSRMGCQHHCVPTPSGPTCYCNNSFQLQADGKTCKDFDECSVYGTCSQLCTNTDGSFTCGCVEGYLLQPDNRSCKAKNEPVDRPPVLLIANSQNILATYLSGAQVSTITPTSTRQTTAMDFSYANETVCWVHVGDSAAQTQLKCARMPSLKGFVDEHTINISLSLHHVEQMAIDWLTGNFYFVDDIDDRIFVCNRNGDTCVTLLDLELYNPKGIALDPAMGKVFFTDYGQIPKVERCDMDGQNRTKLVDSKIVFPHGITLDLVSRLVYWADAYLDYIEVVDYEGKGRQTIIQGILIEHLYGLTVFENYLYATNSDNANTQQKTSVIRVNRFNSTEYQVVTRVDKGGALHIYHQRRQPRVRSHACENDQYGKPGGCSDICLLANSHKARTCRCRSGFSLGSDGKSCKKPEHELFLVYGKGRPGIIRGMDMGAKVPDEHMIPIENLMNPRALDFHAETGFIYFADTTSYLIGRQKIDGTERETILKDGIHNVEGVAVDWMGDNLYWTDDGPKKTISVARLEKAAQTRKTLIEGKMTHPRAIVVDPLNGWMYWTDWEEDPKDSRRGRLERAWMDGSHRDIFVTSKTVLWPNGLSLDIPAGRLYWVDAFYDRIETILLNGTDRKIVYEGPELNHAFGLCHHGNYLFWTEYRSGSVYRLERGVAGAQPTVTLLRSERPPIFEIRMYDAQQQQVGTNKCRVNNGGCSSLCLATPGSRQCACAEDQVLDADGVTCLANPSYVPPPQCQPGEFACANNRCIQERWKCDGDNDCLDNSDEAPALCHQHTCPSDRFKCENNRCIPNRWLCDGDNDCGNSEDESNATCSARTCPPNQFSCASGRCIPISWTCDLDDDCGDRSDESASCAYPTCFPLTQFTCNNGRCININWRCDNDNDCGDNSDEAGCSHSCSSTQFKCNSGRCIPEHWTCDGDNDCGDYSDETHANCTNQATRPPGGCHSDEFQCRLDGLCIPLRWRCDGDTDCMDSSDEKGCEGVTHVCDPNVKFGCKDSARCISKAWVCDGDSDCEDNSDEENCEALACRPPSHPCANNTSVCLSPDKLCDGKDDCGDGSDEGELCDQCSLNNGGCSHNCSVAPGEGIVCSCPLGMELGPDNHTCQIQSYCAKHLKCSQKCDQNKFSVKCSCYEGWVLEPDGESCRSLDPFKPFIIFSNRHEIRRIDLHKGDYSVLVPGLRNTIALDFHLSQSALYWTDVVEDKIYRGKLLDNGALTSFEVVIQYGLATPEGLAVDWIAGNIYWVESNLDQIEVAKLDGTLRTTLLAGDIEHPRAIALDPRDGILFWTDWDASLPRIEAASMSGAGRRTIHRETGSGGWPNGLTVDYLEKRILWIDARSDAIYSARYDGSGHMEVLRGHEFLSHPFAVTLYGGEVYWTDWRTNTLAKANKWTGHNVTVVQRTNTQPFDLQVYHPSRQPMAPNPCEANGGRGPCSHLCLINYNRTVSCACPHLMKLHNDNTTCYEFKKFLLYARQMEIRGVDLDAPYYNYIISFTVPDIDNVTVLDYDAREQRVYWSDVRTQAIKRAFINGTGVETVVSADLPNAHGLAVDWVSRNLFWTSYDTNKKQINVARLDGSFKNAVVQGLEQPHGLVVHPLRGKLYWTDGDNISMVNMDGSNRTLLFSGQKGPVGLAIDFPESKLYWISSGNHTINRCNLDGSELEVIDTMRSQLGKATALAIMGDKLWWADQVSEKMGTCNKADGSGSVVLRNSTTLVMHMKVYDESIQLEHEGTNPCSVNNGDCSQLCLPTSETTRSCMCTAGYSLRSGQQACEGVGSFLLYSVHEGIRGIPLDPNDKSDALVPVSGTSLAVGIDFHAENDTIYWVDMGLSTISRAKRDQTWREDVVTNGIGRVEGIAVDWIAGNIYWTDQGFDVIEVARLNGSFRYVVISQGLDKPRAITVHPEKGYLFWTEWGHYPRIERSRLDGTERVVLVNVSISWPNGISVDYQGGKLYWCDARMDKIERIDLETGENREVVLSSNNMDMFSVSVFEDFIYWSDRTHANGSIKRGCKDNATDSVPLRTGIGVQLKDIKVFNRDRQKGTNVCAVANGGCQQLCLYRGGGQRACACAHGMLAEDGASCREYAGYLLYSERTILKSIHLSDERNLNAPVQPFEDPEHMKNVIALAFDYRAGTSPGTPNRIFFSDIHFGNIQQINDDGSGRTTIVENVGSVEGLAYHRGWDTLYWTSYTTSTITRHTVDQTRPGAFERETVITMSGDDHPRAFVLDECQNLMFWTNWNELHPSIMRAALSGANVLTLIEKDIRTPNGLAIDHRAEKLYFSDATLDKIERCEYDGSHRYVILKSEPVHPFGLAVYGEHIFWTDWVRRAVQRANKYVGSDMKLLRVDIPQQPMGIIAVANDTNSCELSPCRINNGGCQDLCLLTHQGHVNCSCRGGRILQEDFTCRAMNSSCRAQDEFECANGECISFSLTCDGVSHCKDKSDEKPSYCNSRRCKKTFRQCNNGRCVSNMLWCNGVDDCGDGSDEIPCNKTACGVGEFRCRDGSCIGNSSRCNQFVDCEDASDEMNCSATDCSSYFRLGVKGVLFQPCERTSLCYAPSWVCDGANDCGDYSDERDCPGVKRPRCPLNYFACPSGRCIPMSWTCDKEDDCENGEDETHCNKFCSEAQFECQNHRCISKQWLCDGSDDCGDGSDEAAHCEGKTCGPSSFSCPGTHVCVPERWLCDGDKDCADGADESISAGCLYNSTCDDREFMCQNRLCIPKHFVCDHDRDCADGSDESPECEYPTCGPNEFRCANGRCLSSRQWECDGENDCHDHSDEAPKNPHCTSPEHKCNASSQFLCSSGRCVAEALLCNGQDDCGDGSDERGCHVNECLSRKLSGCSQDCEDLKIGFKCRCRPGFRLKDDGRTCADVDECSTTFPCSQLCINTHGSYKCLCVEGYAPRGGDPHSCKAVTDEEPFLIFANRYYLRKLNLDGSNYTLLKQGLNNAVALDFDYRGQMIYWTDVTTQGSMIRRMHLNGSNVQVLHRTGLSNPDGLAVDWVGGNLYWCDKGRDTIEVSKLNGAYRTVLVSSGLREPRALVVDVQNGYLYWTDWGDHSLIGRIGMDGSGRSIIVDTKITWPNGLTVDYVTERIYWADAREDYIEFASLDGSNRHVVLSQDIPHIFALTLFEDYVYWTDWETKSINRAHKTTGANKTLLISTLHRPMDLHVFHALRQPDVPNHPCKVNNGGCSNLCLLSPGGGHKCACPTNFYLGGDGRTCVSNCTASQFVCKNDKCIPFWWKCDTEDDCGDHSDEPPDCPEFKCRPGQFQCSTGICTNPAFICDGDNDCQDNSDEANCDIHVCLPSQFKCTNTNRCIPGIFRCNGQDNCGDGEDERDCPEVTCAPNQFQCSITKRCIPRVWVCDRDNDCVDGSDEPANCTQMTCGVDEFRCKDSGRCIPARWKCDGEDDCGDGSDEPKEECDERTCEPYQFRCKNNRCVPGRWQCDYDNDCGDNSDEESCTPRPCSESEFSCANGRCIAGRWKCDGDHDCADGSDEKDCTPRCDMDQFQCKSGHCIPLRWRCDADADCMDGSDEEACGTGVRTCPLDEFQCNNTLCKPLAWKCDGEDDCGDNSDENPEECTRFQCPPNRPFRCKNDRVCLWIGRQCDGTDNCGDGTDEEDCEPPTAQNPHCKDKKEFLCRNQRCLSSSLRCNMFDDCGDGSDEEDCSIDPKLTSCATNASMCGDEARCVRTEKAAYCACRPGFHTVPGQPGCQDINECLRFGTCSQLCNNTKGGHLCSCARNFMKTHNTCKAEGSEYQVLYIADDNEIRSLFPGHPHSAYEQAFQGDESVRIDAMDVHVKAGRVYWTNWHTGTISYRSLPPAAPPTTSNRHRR
low density lipoprotein receptor-related protein (LRP), sequence (G3V928 3945-4545 limits assumed): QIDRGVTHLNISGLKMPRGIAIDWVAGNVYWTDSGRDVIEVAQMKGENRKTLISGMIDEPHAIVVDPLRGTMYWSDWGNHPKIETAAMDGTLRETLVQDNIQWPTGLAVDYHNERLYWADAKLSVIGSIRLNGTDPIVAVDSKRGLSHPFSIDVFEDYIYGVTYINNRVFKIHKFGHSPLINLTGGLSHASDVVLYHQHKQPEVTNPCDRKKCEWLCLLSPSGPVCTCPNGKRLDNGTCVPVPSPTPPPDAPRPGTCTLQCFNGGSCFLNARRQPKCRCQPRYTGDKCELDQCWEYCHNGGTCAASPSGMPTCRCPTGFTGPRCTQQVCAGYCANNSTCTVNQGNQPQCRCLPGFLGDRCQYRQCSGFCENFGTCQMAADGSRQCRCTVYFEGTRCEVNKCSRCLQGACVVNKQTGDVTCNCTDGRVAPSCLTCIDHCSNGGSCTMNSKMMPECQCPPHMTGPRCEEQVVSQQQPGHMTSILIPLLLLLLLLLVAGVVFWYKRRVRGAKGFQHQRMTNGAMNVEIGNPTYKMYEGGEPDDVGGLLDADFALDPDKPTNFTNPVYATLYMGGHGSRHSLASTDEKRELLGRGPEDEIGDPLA

[7] = test system: brain endothelial monolayer system; settings: cited from earlier work
[8] = cited from earlier work; remark: listed apart in the source
[9] = in situ rat brain perfusion, BBB transfer coefficient; settings: P>0.05

poly-L-lysine
effect on Kin for brain uptake of 125I-ANG1005 ([1]; co-perfusion with poly-l-lysine 25 μM): not inhibited | effect on Kin for brain uptake of 125I-ANG1005 ([1]; co-perfusion with poly-l-lysine 25 μM, listed as poly-l-lysine): None of the four agents produced a statistically significant decrease

CC(=O)O[C@H]1C(=O)[C@@]2(C)[C@H]([C@H](OC(=O)c3ccccc3)[C@]3(O)C[C@H](OC(=O)[C@H](O)[C@@H](NC(=O)c4ccccc4)c4ccccc4)C(C)=C1C3(C)C)[C@]1(OC(C)=O)CO[C@@H]1C[C@@H]2O [paclitaxel]
BBB transfer coefficient (Kin) for brain uptake [2]: 8.5 ± 0.5 × 10^−5 mL/s/g | lowering of brain drug content by vascular correction [3]: ~ 84% | rise of brain paclitaxel concentrations on inhibition of active efflux transport [4]: 6–10 fold

COc1ccc2c(c1)c(CC(=O)O)c(C)n2C(=O)c1ccc(Cl)cc1 [indomethacin]
effect on Kin for brain uptake of 125I-ANG1005 ([1]; co-perfusion with indomethacin 300 μM): None of the four agents produced a statistically significant decrease; also recorded: failed to alter

CN(C)CCCN1c2ccccc2Sc2ccc(Cl)cc21 [chlorpromazine, chlorpromazine hydrochloride]
effect on Kin for brain uptake of 125I-ANG1005 ([1]; co-perfusion with chlorpromazine 100 μM): None of the four agents produced a statistically significant decrease; also recorded: failed to alter

angiopep-2
brain tracer in parenchymal fraction [5]: > 70% | brain tracer in vascular (capillary) pellet [5]: < 30% | reduction of brain 125I-ANG1005 uptake [6]: 30–40% | transcytosis across a brain endothelial monolayer system in vitro [7]: enhanced transcytosis | brain uptake by in situ perfusion [8]: improved brain uptake | brain 14C-sucrose space in the presence of the tracer (BBB permeability) [9]: not altered from control

N[C@@H](Cc1ccccc1)C(=O)O [L-phenylalanine]
effect on Kin for brain uptake of 125I-ANG1005 ([1]; co-perfusion with L-phenylalanine 1 mM): None of the four agents produced a statistically significant decrease; also recorded: not inhibited

OC[C@H]1O[C@@](CO)(O[C@H]2O[C@H](CO)[C@@H](O)[C@H](O)[C@H]2O)[C@@H](O)[C@@H]1O [^14C-sucrose, sucrose]
brain vascular volume Vv (brain distribution space of 14C-sucrose) [2]: 1.2 ± 0.2 × 10^−2 mL/g
